Measurements: US8785494B2, “Calcium sensing receptor modulating compounds and pharmaceutical use thereof” (LEO-Pharma A/S, priority 2009, dated 2014)

Columns and labels:
human CaSR = target: T1, human CaSR (Homo sapiens, UniProt P41180); experiment: Functional whole cell assay (IP1 accumulation, IP-One htrf) in CHO-K1 cells stably expressing human CaSR; type: cell-based; settings: 2 mM Ca2+, 1 hour at 37° C., IP1 readout, read-out: Functional whole cell assay (modulation of human CaSR)
T1 construct: The ORF coding for the human CaSR (genebank: NM_000388) was acquired from Invitrogen Corp, USA
T1 sequence (P41180 20-1078): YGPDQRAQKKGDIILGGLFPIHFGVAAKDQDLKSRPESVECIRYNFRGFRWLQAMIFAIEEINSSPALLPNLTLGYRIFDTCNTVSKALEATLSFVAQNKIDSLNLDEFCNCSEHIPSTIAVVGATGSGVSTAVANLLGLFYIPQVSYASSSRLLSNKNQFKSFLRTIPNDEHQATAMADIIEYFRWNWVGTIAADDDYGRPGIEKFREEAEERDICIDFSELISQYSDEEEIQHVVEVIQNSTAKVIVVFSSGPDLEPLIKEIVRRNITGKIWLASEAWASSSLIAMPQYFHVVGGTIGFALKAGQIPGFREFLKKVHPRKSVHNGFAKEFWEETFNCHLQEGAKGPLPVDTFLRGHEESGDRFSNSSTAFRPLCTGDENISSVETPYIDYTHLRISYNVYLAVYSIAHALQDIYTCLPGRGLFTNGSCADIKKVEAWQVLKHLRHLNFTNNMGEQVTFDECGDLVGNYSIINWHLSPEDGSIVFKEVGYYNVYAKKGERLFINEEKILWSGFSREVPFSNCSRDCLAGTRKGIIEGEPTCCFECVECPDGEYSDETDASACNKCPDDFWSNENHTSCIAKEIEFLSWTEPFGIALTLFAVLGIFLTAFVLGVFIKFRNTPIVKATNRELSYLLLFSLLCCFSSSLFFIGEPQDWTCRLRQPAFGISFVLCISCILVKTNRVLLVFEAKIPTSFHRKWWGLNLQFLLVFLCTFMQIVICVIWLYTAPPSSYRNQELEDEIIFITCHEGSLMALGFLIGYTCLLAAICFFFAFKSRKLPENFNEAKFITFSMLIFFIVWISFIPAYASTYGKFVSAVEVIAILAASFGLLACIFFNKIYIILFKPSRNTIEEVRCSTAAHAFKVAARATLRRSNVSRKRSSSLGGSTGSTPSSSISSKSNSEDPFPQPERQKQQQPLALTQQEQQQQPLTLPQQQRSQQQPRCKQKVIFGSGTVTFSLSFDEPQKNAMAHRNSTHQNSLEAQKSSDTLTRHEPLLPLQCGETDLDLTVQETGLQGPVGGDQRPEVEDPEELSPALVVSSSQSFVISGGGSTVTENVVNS
Source text: The assay investigates a compound's functional ability to act as a biological positive modulator on the human CaSR. Activation of the receptor expressed on CHO-K1 cells is detected through the G alpha q pathway, the activation of phospholipase C and the accumulation of intracellular inositol phosphate (IP) as described earlier [Sandrine Ferry, Bruno Chatel, Robert H. Dodd, Christine Lair, Danielle Gully, Jean-Pierre Maffrand, and Martial Ruat. Effects of Divalent Cations and of a Calcimimetic on Adrenocorticotropic Hormone Release in Pituitary Tumor Cells. BIOCHEMICAL AND BIOPHYSICAL RESEARCH COMMUNICATIONS 238, 866-873 (1997)]. The human CaSR is stably expressed on a CHO-K1 cell clone, stimulated with a basal level of calcium and challenged with the tested compound. The level of IP1 is determined using the IP-One htrf kit (Cisbio, France). CHO-K1 cells not transfected with the CaSR fail to elicit an IP1 response upon calcium and/or compound stimulation.
The ORF coding for the human CaSR (genebank: NM_000388) was acquired from Invitrogen Corp, USA and subsequently cloned into the mammalian expression vector pCDA3.1.
CHO-K1 cells were transfected using Lipofectamine according to manufacturer's protocol (400.000 cells/well were seeded in a 6-well plate and transfected after 24 hours using 2 μg DNA and 5 μl lipofectamine). After another 24 hours the cells were detached, seeded and subjected to 1 mg/ml of G-418. Following 7 days growth single clones were picked, the CaSR expression evaluated using the 5C10 antibody against CaSR, the clones with the highest expression were selected and tested for functional response. The preferred clone was continuously cultured according to standard procedures described in ATCC (American Type Culture Collection) protocols for CHO-K1 with the addition of 500 μg/ml G-418.
On the assay day cells were harvested and resuspended to 13*10^6 cells/ml in stimulation buffer (containing: Hepes 10 mM, MgCl2 0.5 mM, KCl 4.2 mM, NaCl 146 mM, glucose 5.5 mM, LiCl 50 mM at pH 7.4). Five μl cell solution were pipetted into a well (white 384-well plate, Perkin Elmer Optiplate) followed by 5 μl compound diluted in a Ca^2+-containing (to the final concentration of 2 mM) buffer. After compound stimulation for 1 hour at 37° C. 10 μl of IP-One assay reagents were added and incubated for another 1 hour at room temperature. Finally the plate was read using a Perkin Elmer EnVision, according to protocol supplied by the IP-One assay kit manufacturer. The FRET ratio was calculated by dividing the 665 nm emission signal with that of the 615 nm.

[1] = Clearance in rat hepatocytes; type: in vitro ADME; settings: test compound 0.5 μM, 1×10^6 cells/mL, scaled to rat body weight
Description: Test compound concentration is 0.5 μM and cell concentration is 1×10^6 cells/mL in the incubation. The described method is manual and is based on a 24-well format.
The liver is collected from a male Spraque-Dawley rat. One liver lobe is cut off and flushed with various buffers to loosen the cells. The cell suspension is washed and centrifuged, and the cell density is adjusted to 1.2×10^6 cells/mL with Krebs-Henseleit buffer, pH 7.4, containing 0.2% bovine serum albumin (BSA). Only cell suspensions with viability above 80% are used.
A volume of 315 μL cell suspension per well is added to 24-well plates and preincubated at 37° C. for 20 min. Test compound (0.5 μM) is added, and the mixture is incubated for 20 minutes. Incubations are run in duplicate. Samples are withdrawn at predetermined stop times and mixed with methanol containing internal standard (IS) to terminate all enzyme activity and precipitate proteins.
The percentage of organic solvent in the incubations is less than 1%. Careful inspections of reagents are performed prior to the start of any experiment to ensure all reagents are in solution.
The 24-well plates are centrifuged. Test compound depletion, using a compound specific LC/MS/MS method, is determined. The logarithm of the peak area ratios of test compound to internal standard (IS) versus incubation time is plotted in a graph
The rate constant (k) (min^−1) of test compound depletion is calculated from the linear part of the curve and the half-time (t1/2) in minutes can be calculated from the rate constant (Eq. 1). t1/2=(ln 2)/k (Eq. 1)
Intrinsic clearance (Clint) (mL/min/10^6 cells) is calculated from: Clint=k/c (Eq. 2) where c is the cell concentration in 10^6 cells/mL.
Conversion to apparent clearance (Clapp) (mL/min/kg) is done by Eq. 3: Clapp=Clint×a×b/d (Eq. 3) where a, b and d are the scaling factors for normalizing Clint to rat body weight.
The following rat scaling factors are used: • a: 120 (cells/liver weight (10^6 cells/g)) • b: 10 (liver weight (g)) • d: 0.25 (body weight (kg))
Apparent clearance is a measure of compound elimination from the liver. Apparent clearance below approximately 25 mL/min/kg rat body weight (corresponding to extraction ratio of approx. 30%) is considered as low clearance (high metabolic stability). Apparent clearance above approximately 165 mL/min/kg rat body weight (corresponding to extraction ratio of approx. 75%) is considered as high clearance (low metabolic stability).

EC50 (human CaSR) [nM] | Compound | Clearance (Clapp) in rat hepatocytes [1]
< 500 | COc1cc([C@@H](C)NC2CC[C@H](c3ccc(OCC(=O)O)c(C(F)(F)F)c3)C2)ccc1F (mixture of isomers) [Compound 1021, 2-[4-[(1S)-3-[[(1R)-1-(4-fluoro-3-methoxy-phenyl)ethyl]amino]cyclopentyl]-2-(trifluoromethyl)phenoxy]acetic acid] | A (A: <30 mL/min/kg)
< 500 | COc1cc([C@@H](C)NC2CC[C@H](c3ccc(CCC(=O)O)c(C(F)(F)F)c3)C2)ccc1F (single isomer, unassigned) [Compound 1012] | A (A: <30 mL/min/kg)

The next lines start with the compound.

Compound | EC50 (human CaSR) [nM] | Clearance (Clapp) in rat hepatocytes [1]
C[C@@H](NC1CCC(c2ccc(CCC(=O)O)c(C(F)(F)F)c2)C1)c1cccc2ccccc12 (single isomer, unassigned) [Compound 1007] | < 500 | B (B: 30-55 mL/min/kg)
COc1cc([C@@H](C)NC2CC[C@@H](c3cc(OCC(=O)O)cc(C(F)(F)F)c3)C2)ccc1F (single isomer, unassigned) [Compound 1022] | < 500 | A (A: <30 mL/min/kg)
C[C@@H](NC1CC[C@@H](c2cc(OCC(=O)O)cc(C(F)(F)F)c2)C1)c1cccc2ccccc12 (single isomer, unassigned) [Compound 1023] | < 500 | B (B: 30-55 mL/min/kg)
